Reference: ChEMBL document CHEMBL4507262, “Data for DCP probe A-1596586” (2021)
Activity calls are given as the source filed them. No cut-off for these calls is given here.

Assays:
[1] = target: Cystic fibrosis transmembrane conductance regulator (Homo sapiens, UniProt P13569); test: CSE-HRP surface expression (Cell surface expression-horseradish peroxidase) assay
[2] = target: Adenosine receptor A3 (Homo sapiens) (UniProt P0DMS8); test: A3 (h) Eurofins-Cerep binding assay; design: ligand concentration 0.15 nM; details: filed as agonist, Compound concentration 10.0 uM
[3] = target: 5-hydroxytryptamine receptor 1B (Homo sapiens) (UniProt P28222); test: 5-HT1B(h) Eurofins-Cerep binding assay; design: ligand concentration 1 nM; details: filed as antagonist, Compound concentration 10.0 uM
[4] = target: Sodium-dependent dopamine transporter (Homo sapiens) (UniProt Q01959); test: dopamine transporter (h) Eurofins-Cerep binding assay; design: ligand concentration 4 nM; details: filed as antagonist, Compound concentration 10.0 uM
[5] = target: Ankyrin repeat and protein kinase domain-containing protein 1 (Homo sapiens) (UniProt Q8NFD2); details: Compound concentration 1000.0 nM
[6] = target: Aurora kinase B (Homo sapiens) (UniProt Q96GD4); details: Compound concentration 1000.0 nM
[7] = target: Cyclin-dependent kinase 11B (Homo sapiens) (UniProt P21127); details: Compound concentration 1000.0 nM
[8] = target: Cyclin-dependent kinase 3 (Homo sapiens) (UniProt Q00526); details: Compound concentration 1000.0 nM
[9] = target: Cyclin-dependent kinase 4 (Homo sapiens) (UniProt P11802); details: Compound concentration 1000.0 nM
[10] = target: Death-associated protein kinase 3 (Homo sapiens) (UniProt O43293); details: Compound concentration 1000.0 nM
[11] = target: Dual specificity tyrosine-phosphorylation-regulated kinase 1A (Homo sapiens) (UniProt Q13627); details: Compound concentration 1000.0 nM
[12] = target: Epidermal growth factor receptor (Homo sapiens) (UniProt P00533); details: Compound concentration 1000.0 nM
[13] = target: Ephrin type-B receptor 1 (Homo sapiens) (UniProt P54762); details: Compound concentration 1000.0 nM
[14] = target: Fibroblast growth factor receptor 1 (Homo sapiens) (UniProt P11362); details: Compound concentration 1000.0 nM
[15] = tested on: Receptor-type tyrosine-protein kinase FLT3 (Homo sapiens), P36888 [K663Q]; details: Compound concentration 1000.0 nM
[16] = target: G protein-coupled receptor kinase 4 (Homo sapiens) (UniProt P32298); details: Compound concentration 1000.0 nM
[17] = target: Leukocyte tyrosine kinase receptor (Homo sapiens) (UniProt P29376); details: Compound concentration 1000.0 nM
[18] = target: Microtubule-associated serine/threonine-protein kinase 1 (Homo sapiens) (UniProt Q9Y2H9); details: Compound concentration 1000.0 nM
[19] = target: Dual specificity mitogen-activated protein kinase kinase 2 (Homo sapiens) (UniProt P36507); details: Compound concentration 1000.0 nM
[20] = target: Dual specificity mitogen-activated protein kinase kinase 6 (Homo sapiens) (UniProt P52564); details: Compound concentration 1000.0 nM
[21] = target: Dual specificity mitogen-activated protein kinase kinase 7 (Homo sapiens) (UniProt O14733); details: Compound concentration 1000.0 nM
[22] = target: Serine/threonine-protein kinase MRCK beta (Homo sapiens) (UniProt Q9Y5S2); details: Compound concentration 1000.0 nM
[23] = target: Serine/threonine-protein kinase mTOR (Homo sapiens) (UniProt P42345); details: Compound concentration 1000.0 nM
[24] = target: Serine/threonine-protein kinase Nek3 (Homo sapiens) (UniProt P51956); details: Compound concentration 1000.0 nM
[25] = target: Cyclin-dependent kinase 15 (Homo sapiens) (UniProt Q96Q40); details: Compound concentration 1000.0 nM
[26] = tested on: Phosphatidylinositol 4,5-bisphosphate 3-kinase catalytic subunit alpha isoform (Homo sapiens), P42336 [E542K]; details: Compound concentration 1000.0 nM
[27] = tested on: Phosphatidylinositol 4,5-bisphosphate 3-kinase catalytic subunit alpha isoform (Homo sapiens), P42336 [E545K]; details: Compound concentration 1000.0 nM
[28] = target: Phosphatidylinositol 5-phosphate 4-kinase type-2 beta (Homo sapiens) (UniProt P78356); details: Compound concentration 1000.0 nM
[29] = target: Protein kinase C delta type (Homo sapiens) (UniProt Q05655); details: Compound concentration 1000.0 nM
[30] = target: Proto-oncogene tyrosine-protein kinase receptor Ret (Homo sapiens) (UniProt P07949); details: Compound concentration 1000.0 nM
[31] = target: Serine/threonine-protein kinase Sgk1 (Homo sapiens) (UniProt O00141); details: Compound concentration 1000.0 nM
[32] = target: Serine/threonine-protein kinase TAO2 (Homo sapiens) (UniProt Q9UL54); details: Compound concentration 1000.0 nM
[33] = target: TGF-beta receptor type-1 (Homo sapiens) (UniProt P36897); details: Compound concentration 1000.0 nM
[34] = target: Angiopoietin-1 receptor (Homo sapiens) (UniProt Q02763); details: Compound concentration 1000.0 nM
[35] = target: Tyrosine-protein kinase TXK (Homo sapiens) (UniProt P42681); details: Compound concentration 1000.0 nM
[36] = target: Serine/threonine-protein kinase ULK3 (Homo sapiens) (UniProt Q6PHR2); details: Compound concentration 1000.0 nM
[37] = target: 5-hydroxytryptamine receptor 2A (Homo sapiens) (UniProt P28223); details: Compound concentration 10.0 uM
[38] = target: D(1A) dopamine receptor (Homo sapiens) (UniProt P21728); details: Compound concentration 10.0 uM
[39] = target: T1, Alpha-2B adrenergic receptor (Homo sapiens) (UniProt P18089); details: Compound concentration 10.0 uM
T1 sequence (whole entry): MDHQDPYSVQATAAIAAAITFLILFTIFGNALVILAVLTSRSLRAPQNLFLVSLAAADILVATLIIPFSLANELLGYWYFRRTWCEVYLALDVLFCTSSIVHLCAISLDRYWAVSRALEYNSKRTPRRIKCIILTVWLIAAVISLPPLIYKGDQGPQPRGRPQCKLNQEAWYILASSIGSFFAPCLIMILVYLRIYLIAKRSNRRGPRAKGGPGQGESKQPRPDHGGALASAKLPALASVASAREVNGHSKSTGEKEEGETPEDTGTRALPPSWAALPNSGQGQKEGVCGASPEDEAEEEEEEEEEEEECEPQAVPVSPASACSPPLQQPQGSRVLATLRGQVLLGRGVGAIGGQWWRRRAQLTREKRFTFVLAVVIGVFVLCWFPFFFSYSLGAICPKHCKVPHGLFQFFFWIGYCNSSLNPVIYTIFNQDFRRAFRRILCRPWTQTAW

Chain of Serine/threonine-protein kinase TAO2 (Homo sapiens) (Q9UL54 whole entry): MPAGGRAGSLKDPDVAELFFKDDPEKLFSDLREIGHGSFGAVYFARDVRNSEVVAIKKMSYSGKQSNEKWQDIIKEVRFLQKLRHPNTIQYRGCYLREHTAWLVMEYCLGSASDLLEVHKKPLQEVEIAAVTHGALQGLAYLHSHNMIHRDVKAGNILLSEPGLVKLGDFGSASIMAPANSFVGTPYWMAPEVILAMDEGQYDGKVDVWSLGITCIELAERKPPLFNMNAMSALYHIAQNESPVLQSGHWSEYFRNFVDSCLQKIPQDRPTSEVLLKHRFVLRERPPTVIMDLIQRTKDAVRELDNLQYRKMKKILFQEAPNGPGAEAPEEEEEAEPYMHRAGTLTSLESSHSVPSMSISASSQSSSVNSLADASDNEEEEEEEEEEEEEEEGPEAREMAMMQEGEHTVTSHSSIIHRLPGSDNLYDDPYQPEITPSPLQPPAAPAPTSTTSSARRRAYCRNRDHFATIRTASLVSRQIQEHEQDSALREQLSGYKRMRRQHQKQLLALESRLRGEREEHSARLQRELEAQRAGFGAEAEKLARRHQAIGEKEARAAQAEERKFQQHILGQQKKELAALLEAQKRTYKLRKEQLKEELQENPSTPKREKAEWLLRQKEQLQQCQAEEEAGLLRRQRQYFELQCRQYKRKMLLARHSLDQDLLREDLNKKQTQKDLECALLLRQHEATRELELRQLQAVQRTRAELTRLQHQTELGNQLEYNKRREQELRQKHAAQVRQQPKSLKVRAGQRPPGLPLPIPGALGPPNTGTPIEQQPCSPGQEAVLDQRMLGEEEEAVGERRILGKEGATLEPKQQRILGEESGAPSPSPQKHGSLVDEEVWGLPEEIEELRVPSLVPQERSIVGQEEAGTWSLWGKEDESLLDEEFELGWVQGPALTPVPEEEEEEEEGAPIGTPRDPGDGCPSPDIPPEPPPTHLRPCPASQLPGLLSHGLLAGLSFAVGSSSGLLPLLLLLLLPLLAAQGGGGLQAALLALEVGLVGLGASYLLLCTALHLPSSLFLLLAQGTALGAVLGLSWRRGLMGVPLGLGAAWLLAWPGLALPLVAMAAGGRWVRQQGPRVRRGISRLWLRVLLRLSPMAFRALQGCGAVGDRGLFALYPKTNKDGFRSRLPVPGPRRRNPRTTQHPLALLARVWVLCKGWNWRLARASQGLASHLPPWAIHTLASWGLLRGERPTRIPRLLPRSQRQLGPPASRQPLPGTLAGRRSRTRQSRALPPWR
Chain of Tyrosine-protein kinase TXK (Homo sapiens) (P42681 whole entry): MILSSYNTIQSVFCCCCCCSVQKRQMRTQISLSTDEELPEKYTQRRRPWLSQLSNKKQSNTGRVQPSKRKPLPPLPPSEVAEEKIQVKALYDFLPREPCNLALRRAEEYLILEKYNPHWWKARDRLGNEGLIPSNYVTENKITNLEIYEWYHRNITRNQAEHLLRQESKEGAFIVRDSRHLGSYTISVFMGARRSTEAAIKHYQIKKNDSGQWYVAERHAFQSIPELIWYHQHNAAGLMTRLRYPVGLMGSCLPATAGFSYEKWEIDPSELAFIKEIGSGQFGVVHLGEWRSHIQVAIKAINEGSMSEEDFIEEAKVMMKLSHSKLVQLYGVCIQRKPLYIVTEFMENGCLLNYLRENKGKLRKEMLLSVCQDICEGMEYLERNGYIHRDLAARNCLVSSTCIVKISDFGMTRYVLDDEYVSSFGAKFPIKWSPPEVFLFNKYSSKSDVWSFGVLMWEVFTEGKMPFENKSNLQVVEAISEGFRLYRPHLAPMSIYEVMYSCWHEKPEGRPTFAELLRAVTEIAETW
Chain of Epidermal growth factor receptor (Homo sapiens) (P00533 whole entry): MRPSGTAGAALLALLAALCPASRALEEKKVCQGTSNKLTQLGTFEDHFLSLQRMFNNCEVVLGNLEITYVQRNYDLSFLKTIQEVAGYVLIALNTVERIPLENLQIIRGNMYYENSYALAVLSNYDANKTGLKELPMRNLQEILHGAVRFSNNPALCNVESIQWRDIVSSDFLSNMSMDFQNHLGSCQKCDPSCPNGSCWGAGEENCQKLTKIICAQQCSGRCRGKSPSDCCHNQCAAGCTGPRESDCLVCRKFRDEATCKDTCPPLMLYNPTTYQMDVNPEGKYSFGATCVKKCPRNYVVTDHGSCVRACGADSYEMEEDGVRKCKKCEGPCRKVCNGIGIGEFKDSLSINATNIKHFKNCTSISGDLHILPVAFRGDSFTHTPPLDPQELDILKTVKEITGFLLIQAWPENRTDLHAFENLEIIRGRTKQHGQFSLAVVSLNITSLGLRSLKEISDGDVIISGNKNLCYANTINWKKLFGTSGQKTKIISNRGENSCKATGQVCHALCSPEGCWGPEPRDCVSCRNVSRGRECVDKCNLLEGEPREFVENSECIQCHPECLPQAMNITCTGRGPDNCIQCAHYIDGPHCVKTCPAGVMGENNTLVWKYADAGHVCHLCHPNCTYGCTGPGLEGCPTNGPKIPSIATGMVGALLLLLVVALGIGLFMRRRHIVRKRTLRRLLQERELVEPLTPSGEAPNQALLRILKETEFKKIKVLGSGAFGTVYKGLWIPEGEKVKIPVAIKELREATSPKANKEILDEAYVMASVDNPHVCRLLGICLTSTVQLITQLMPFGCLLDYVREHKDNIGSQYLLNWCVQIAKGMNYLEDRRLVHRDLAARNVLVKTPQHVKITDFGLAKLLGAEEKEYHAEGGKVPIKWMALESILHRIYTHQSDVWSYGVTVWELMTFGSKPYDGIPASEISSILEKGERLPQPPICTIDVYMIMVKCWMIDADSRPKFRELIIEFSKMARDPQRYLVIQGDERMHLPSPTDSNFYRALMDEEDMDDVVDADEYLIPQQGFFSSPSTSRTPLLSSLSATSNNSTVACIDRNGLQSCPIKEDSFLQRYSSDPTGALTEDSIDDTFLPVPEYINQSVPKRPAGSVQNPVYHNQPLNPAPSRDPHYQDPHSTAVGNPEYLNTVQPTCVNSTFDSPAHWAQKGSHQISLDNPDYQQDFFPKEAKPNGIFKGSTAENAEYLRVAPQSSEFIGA
Chain of Aurora kinase B (Homo sapiens) (Q96GD4 whole entry): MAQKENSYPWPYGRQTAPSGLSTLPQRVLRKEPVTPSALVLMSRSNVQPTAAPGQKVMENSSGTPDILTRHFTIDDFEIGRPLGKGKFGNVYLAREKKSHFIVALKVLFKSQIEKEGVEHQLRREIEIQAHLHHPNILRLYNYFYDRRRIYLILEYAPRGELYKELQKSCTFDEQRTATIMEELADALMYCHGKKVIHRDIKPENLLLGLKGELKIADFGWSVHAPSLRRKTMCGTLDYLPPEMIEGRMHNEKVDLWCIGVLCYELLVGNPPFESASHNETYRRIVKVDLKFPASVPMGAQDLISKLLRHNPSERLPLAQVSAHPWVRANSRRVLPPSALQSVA
Chain of Dual specificity mitogen-activated protein kinase kinase 2 (Homo sapiens) (P36507 whole entry): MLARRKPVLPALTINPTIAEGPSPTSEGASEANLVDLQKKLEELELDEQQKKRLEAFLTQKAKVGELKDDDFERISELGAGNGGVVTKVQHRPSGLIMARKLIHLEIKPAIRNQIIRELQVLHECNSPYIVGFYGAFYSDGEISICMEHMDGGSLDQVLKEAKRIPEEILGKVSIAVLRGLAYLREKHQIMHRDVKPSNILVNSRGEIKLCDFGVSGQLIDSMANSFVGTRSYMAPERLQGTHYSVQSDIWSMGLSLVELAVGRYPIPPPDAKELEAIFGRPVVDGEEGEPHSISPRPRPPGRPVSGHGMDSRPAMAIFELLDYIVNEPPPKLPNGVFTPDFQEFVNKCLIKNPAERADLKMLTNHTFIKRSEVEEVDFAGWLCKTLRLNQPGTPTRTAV
Chain of Angiopoietin-1 receptor (Homo sapiens) (Q02763 whole entry): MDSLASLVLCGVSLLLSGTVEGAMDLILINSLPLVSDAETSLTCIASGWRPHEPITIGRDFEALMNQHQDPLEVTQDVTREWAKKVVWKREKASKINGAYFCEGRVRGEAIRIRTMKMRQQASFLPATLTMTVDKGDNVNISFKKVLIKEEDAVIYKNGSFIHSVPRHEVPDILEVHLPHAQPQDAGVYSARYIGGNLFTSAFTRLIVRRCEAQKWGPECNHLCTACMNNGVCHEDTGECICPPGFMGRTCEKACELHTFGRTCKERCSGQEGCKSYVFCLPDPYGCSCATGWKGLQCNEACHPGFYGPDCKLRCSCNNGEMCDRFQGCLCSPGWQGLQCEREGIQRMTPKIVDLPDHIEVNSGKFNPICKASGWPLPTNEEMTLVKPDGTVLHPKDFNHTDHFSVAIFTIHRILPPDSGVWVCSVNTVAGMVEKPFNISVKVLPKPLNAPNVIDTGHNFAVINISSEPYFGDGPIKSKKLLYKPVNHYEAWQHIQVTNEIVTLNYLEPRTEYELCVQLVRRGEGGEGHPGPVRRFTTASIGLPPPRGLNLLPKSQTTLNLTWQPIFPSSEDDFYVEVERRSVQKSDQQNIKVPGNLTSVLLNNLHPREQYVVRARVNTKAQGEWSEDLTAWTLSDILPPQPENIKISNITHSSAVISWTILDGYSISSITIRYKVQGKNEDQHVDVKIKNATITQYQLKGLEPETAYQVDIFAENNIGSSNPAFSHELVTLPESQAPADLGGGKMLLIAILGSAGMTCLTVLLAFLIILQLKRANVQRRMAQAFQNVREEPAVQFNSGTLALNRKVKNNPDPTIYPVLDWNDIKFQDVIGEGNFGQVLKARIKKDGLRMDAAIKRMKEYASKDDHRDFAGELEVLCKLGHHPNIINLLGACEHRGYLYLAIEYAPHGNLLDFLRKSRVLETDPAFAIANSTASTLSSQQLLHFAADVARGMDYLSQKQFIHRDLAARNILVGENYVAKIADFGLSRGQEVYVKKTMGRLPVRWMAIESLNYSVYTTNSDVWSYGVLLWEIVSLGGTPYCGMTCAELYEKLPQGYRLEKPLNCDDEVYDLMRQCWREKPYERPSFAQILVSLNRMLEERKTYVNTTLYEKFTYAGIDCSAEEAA

Structure (SMILES) | EC50 [1] | % Inhibition of Control Specific Binding (Mean n=2) [2] [%] | % Inhibition of Control Specific Binding (Mean n=2) [3] [%] | % Inhibition of Control Specific Binding (Mean n=2) [4] [%] | residual activity [5] [%] | residual activity [6] [%] | residual activity [7] [%] | residual activity [8] [%] | residual activity [9] [%] | residual activity [10] [%] | residual activity [11] [%] | residual activity [12] [%] | residual activity [13] [%] | residual activity [14] [%] | residual activity [15] [%] | residual activity [16] [%] | residual activity [17] [%] | residual activity [18] [%] | residual activity [19] [%] | residual activity [20] [%] | also measured
COc1ccc2c(c1)O[C@H](c1ccc(OC)c(OC)c1)C[C@@H]2NC(=O)C1(c2ccc3c(c2)OC(F)(F)O3)CC1 [A-1596584] | 1000 nM (not active) | 67.7 | -8.6 | 25.8 | 100 | 98 | 100 | 100 | 100 | 95 | 100 | 92 | 100 | 87 | 100 | 100 | 100 | 100 | 100 | 100 | residual activity [21]: 100%; residual activity [22]: 100%; residual activity [23]: 100%; residual activity [24]: 90%; residual activity [25]: 100%; residual activity [26]: 95%; residual activity [27]: 91%; residual activity [28]: 80%; residual activity [29]: 100%; residual activity [30]: 100%; residual activity [31]: 100%; residual activity [32]: 98%; residual activity [33]: 100%; residual activity [34]: 70%; residual activity [35]: 95%; residual activity [36]: 90%; inhibition [37]: 7.46%; inhibition [38]: 35.1%; inhibition [39]: 19.6%
COc1ccc2c(c1)O[C@@H](c1ccc(OC)c(OC)c1)C[C@H]2NC(=O)C1(c2ccc3c(c2)OC(F)(F)O3)CC1 [A-1596586] | 130 nM (active) | 63.9 | 2.8 | 6.1 | 76 | 84 | 100 | 100 | 100 | 93 | 80 | 96 | 87 | 90 | 100 | 92 | 100 | 100 | 87 | 100 | residual activity [21]: 88%; residual activity [22]: 100%; residual activity [23]: 100%; residual activity [24]: 76%; residual activity [25]: 100%; residual activity [26]: 79%; residual activity [27]: 77%; residual activity [28]: 100%; residual activity [29]: 100%; residual activity [30]: 99%; residual activity [31]: 85%; residual activity [32]: 83%; residual activity [33]: 100%; residual activity [34]: 92%; residual activity [35]: 97%; residual activity [36]: 85%; inhibition [37]: 8.84%; inhibition [38]: 29.2%; inhibition [39]: 37.5%
